Results published in patent publication US20110293746A1, “Modulation of Gsk-3Beta and Method of Treating Proliferative Disorders” (Agency For Science, Technology and Research, priority 2004, published 2011).
“Also recorded” adds a separate entry of the source.

Experiments:
[1] = tested on: p53 and p53 targets in HCT116 cells; assay: Immunoblot analyses of p53 and p53 targets; assay type: cell-based, Human; details: for cleavage of PARP: cells treated with genotoxic agents; for p53-mediated p21 induction / p53 accumulation / stability in response to DNA damage: with ADR, etoposide or 5-FU, HCT116 (LY2119301 also RKO)
Experimental: (§1) Western blotting, immunoprecipitation and microarray analysis: Cells were scraped, collected and lysed as described previously (Yu, Q., et al. Cancer Res, 62: 5743-5748, 2002). Briefly, cells were lysed with cell lysis buffer (0.3% NP40, 1 mM EDTA, 50 mM Tris-HCl (pH 7.4), 2 mM EGTA, 1% Triton X-100, […], 25 mM NaF, 1 mM Na3VO4, 2 mM AEBSF, 5 μg/ml aprotinin, 1 μg/ml leupeptin) for 30 minutes on ice, and the lysates were clarified by centrifugation at 12,000×g for 15 minutes at 4° C. Protein concentration was quantified (Bio-Rad, Hercules, Calif.) and protein samples (50 μg) were separated by SDS/PAGE and transferred onto Immobilon™ membranes (Millipore, Bedford, Mass.). Antibodies against the following proteins were used: p53 (DO-1), p21, PARP, GSK-α/β, α-Tubulin, and β-actin (Santa Cruz Biotechnology), Puma (Ab-1, Oncogene), Bax (Sigma), phosphor-(Ser9/21)-GSK-3α/β and Caspase-9 (Cell Signaling Technologies), phosphor-(Tyr216/279)-GSK-3α/β (Upstate Biotechnologies), cytochrome c (BD PharMingen). To detect Bax conformational change, cells were lysed in 1% Chaps buffer and the soluble fraction was immunoprecipitated with anti-Bax monoclonal antibody (6A7, BD, PharMingen), followed by immunoblotting with anti-Bax polyclonal antibody. Microarray analysis was performed as described (Kho, P. S., et al. J Biol Chem, 279: 21183-21192, 2004).

HCT116 cells = assay: FACS analysis of DNA content (sub-G1 apoptotic fraction); assay type: cell-based, Human; details: for effect on ADR-treated cells (apoptosis): concentrations up to 20 μM, with ADR
Experimental: Cell culture and drug treatments: Human colon cancer cell line HCT116 and its derived isogenic p53^−/−, Puma^−/−, Bax^−/− and p53-inducible DLD cell lines were kindly provided by Dr. Bert Vogelstein (Johns Hopkins University, MD). RKO and RKO/E6 cells were from ATCC. Cells were cultured in DMEM containing 10% FBS. All culture reagents and media were from Invitrogen. 5-Fluorouracil, Adriamycin, etoposide and lithium chloride were purchased from Sigma. GSK-3β specific small molecule inhibitor LY2119301 was a gift from Eli Lilly (Indianapolis) and SB-216763, SB-415283 were obtained from BIOMOL.
FACS analysis of DNA content and caspase-3 activity: Cells were harvested and fixed in 70% ethanol. Fixed cells were stained with propidium iodide (50 μg/ml) after treatment with RNase (100 μg/ml). The stained cells were analyzed for DNA content by fluorescence-activated cell sorting (FACS) in a FACScalibur™ (Becton Dickinson Instrument, San Jose, Calif.). Cell cycle fractions were quantified using the CellQues™ software (Becton Dickinson). To measure caspase-3 activity, cells were fixed with Cytofix/Cytoperm™ solution (BD PharMingen) as instructed, and then stained with FITC-conjugated rabbit anti-active caspase-3 monoclonal antibody (BD PharMingen). Quantification of cells positive for the caspase-3 detection was performed by flow cytometry.

GSK-3α and GSK-3β = details: in vitro, Coghlan et al. 2000; cited from earlier work
GSK-3α = biological target: T1, GSK-3α (Homo sapiens, UniProt P49840); assay: Immunoblot analysis of GSK-3 phosphorylation status in HCT116 cells; assay type: cell-based; details: HCT116 whole lysate immunoblot
T1 construct: endogenous in cells; host or cells: HCT116
T1 sequence (P49840 whole entry): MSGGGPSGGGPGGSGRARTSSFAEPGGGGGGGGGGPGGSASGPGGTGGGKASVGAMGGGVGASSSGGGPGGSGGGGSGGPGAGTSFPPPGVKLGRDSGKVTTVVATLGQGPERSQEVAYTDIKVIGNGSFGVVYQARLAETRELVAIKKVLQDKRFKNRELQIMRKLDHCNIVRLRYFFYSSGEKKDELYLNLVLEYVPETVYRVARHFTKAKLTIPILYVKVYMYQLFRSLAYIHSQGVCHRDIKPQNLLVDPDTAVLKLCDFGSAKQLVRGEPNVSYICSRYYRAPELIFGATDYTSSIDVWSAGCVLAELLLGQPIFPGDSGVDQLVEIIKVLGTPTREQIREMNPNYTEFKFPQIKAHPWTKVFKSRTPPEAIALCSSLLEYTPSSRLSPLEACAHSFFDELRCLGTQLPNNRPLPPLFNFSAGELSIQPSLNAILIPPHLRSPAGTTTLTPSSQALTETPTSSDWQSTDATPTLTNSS
Experimental: (§2) Protein concentration was quantified (Bio-Rad, Hercules, Calif.) and protein samples (50 μg) were separated by SDS/PAGE and transferred onto Immobilon™ membranes (Millipore, Bedford, Mass.). […] To detect Bax conformational change, cells were lysed in 1% Chaps buffer and the soluble fraction was immunoprecipitated with anti-Bax monoclonal antibody (6A7, BD, PharMingen), followed by immunoblotting with anti-Bax polyclonal antibody.
(§3) Subcellular fractionation: Cells were lysed in mitochondria lysis buffer (210 mM Mannitol, 70 mM Sucrose, 10 mM Hepes (pH, 7.4), 1 mM EDTA, protease inhibitor cocktail) with a Dounce homogenizer and subjected to centrifugation at 1000×g to pellet the nuclei. Post-nuclear supernatant was centrifuged at 10,000×g to pellet the mitochondria-enriched heavy membrane fraction, and the resulting supernatant was further centrifuged to obtain cytosolic fraction. Total proteins (30 μg) from cytosolic or mitochondrial fractions were subjected to immunoblot analysis.

GSK-3β = biological target: T2, GSK-3β (Homo sapiens, UniProt P49841); assay: as above; assay type: cell-based
T2 construct: endogenous in cells; host or cells: HCT116
T2 sequence (P49841 whole entry): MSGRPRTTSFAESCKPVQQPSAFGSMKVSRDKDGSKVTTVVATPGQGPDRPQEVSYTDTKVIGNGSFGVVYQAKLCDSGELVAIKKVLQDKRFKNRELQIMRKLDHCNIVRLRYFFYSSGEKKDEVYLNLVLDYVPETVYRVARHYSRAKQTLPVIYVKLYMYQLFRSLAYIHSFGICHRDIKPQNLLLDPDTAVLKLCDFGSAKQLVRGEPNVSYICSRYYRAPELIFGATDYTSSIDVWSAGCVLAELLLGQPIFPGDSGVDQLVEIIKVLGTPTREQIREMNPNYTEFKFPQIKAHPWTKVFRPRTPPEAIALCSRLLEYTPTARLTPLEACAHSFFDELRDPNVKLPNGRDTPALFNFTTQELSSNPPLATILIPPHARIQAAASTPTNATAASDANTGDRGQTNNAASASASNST
Experimental: as §2, §3

p53 in HCT116 cells = assay: p53 accumulation in cytosol and mitochondria (subcellular fractionation, Western blot); assay type: cell-based, Human; details: after drug treatment
Experimental: as §1, §3

In the case of `Cn1cc(C2=C(c3ccc(Cl)cc3Cl)C(=O)NC2=O)c2ccccc21` [SB-216763], the “cleavage of PARP” value [1] is reported as “did not induce”, the “p53-mediated p21 induction” value [1] is reported as “no affect” and the “p53 accumulation / stability in response to DNA damage” value (shortened to “p53 accumulation / stability”) [1] is reported as “no affect”. For the same compound, the “p53-mediated p21 induction” value ([1]; listed as SB-126763) was “no effect”, the “p53 accumulation / stability” value ([1]; listed as SB-126763) was “no effect” and the “effect on ADR-treated cells (apoptosis)” value (HCT116 cells) was “no effect”. The “inhibition of GSK-3α versus GSK-3β” value (GSK-3α and GSK-3β) was “equally effective”, the “activating tyrosine phosphorylation on GSK-3α” value (GSK-3α) was “reduced” and the “inhibitory serine 21 phosphorylation on GSK-3α” value (GSK-3α) was “induced”. The “inhibitory serine 9 phosphorylation on GSK-3β” value (GSK-3β; HCT116 whole lysate immunoblot) was “slightly reduced” and the “tyrosine phosphorylation of GSK-3β” value (GSK-3β; nuclear and cytoplasmic fractions) was “did not block”.

For `O=C1NC(=O)C(c2ccccc2[N+](=O)[O-])=C1Nc1ccc(O)c(Cl)c1` [SB-415286], the “cleavage of PARP” value [1] was “did not induce”, the “p53-mediated p21 induction” value [1] was “no affect; also recorded: no effect” and the “p53 accumulation / stability” value [1] was “no affect; also recorded: no effect”. The “effect on ADR-treated cells (apoptosis)” value (HCT116 cells) was “no effect”.

For `O=c1[nH]cc(F)c(=O)[nH]1` [5-FU, 5-fluorouracil], the “time of p53 accumulation in the cytosol (not seen until)” value (p53 in HCT116 cells) was 6 h and the “time of p53 accumulation in the mitochondria (as early as)” value (p53 in HCT116 cells) was 2 h.

With `COc1cc([C@@H]2c3cc4c(cc3[C@@H](O[C@@H]3O[C@@H]5CO[C@@H](C)O[C@H]5[C@H](O)[C@H]3O)[C@H]3COC(=O)[C@H]23)OCO4)cc(OC)c1O` [etoposide] the “apoptosis by etoposide alone despite mitochondrial p53 accumulation” value (HCT116 cells; etoposide without GSK-3β inhibitor) was “failed to induce apoptosis”, the “levels and phosphorylation states of cytosolic and nuclear GSK-3α and GSK-3β” value (GSK-3β; after etoposide treatment alone) was “no changes” and the “time of p53 accumulation in the cytosol (not seen until)” value (p53 in HCT116 cells) was 6 h. The “time of p53 accumulation in the mitochondria (as early as)” value (p53 in HCT116 cells) was 2 h.
